Measurements: the NIST ThermoML archive (doi:10.1016/j.jct.2011.04.008)
± gives the expanded uncertainty stated by the source.

Test: xn = mol fraction of the nth substance listed
Details: 101 kPa, Liquid; for viscosity: Capillary tube (Ostwald / Ubbelohde) method; for speed of sound: Linear variable-path acoustic interferometer; for mass density: Pycnometric method

CC(=O)OC(C)(C)C [1,1-dimethylethyl ethanoate] + CCc1ccccc1
Details | mass density, 298.15 K [kg/m3] | mass density, 308.15 K [kg/m3] | speed of sound, 298.15 K [m/s] | speed of sound, 308.15 K [m/s] | viscosity, 298.15 K [mPa·s] | viscosity, 308.15 K [mPa·s]
x1 = 0.0979 | 863.9 ± 0.5 | 854.7 ± 0.5 | 1287 ± 3 | 1245 ± 3 | 0.635 ± 0.008 | 0.571 ± 0.008
x1 = 0.1974 | 863.3 ± 0.5 | 853.9 ± 0.5 | 1254 ± 3 | 1214 ± 3 | 0.639 ± 0.008 | 0.573 ± 0.008
x1 = 0.2989 | 862.6 ± 0.5 | 852.9 ± 0.5 | 1224 ± 3 | 1186 ± 3 | 0.641 ± 0.008 | 0.573 ± 0.008
x1 = 0.3983 | 861.9 ± 0.5 | 852 ± 0.5 | 1198 ± 3 | 1161 ± 3 | 0.644 ± 0.008 | 0.574 ± 0.008
x1 = 0.4976 | 861.3 ± 0.5 | 851.1 ± 0.5 | 1176 ± 3 | 1139 ± 3 | 0.647 ± 0.008 | 0.575 ± 0.008
x1 = 0.5986 | 860.7 ± 0.5 | 850.3 ± 0.5 | 1155 ± 3 | 1119 ± 3 | 0.651 ± 0.008 | 0.576 ± 0.008
x1 = 0.6977 | 860.4 ± 0.5 | 849.7 ± 0.5 | 1137 ± 3 | 1101 ± 3 | 0.656 ± 0.008 | 0.579 ± 0.008
x1 = 0.7979 | – | 849.3 ± 0.5 | 1121 ± 3 | 1085 ± 3 | 0.663 ± 0.008 | 0.582 ± 0.008
x1 = 0.8978 | 860.5 ± 0.5 | 849.2 ± 0.5 | 1106 ± 3 | 1069 ± 3 | 0.671 ± 0.008 | 0.588 ± 0.008
x1 = 1 | 861.1 ± 0.5 | 849.4 ± 0.5 | 1092 ± 3 | 1055 ± 3 | 0.683 ± 0.008 | 0.596 ± 0.008

CC(=O)OC(C)(C)C [1,1-dimethylethyl ethanoate] + c1ccccc1
Details | mass density, 298.15 K [kg/m3] | mass density, 308.15 K [kg/m3] | speed of sound, 298.15 K [m/s] | speed of sound, 308.15 K [m/s] | viscosity, 298.15 K [mPa·s] | viscosity, 308.15 K [mPa·s]
x1 = 0.0987 | 870.6 ± 0.5 | 859.3 ± 0.5 | 1254 ± 3 | 1215 ± 3 | 0.613 ± 0.007 | 0.54 ± 0.007
x1 = 0.1999 | 868.5 ± 0.5 | 856.8 ± 0.5 | 1220 ± 3 | 1179 ± 3 | 0.618 ± 0.007 | 0.542 ± 0.007
x1 = 0.299 | 866.7 ± 0.5 | 854.9 ± 0.5 | 1192 ± 3 | 1150 ± 3 | 0.623 ± 0.007 | 0.544 ± 0.007
x1 = 0.3982 | 865.3 ± 0.5 | 853.2 ± 0.5 | 1169 ± 3 | 1127 ± 3 | 0.629 ± 0.007 | 0.548 ± 0.007
x1 = 0.498 | 864.1 ± 0.5 | 851.9 ± 0.5 | 1149 ± 3 | 1107 ± 3 | 0.636 ± 0.007 | 0.552 ± 0.007
x1 = 0.5995 | 863 ± 0.5 | 850.8 ± 0.5 | 1133 ± 3 | 1091 ± 3 | 0.643 ± 0.008 | 0.558 ± 0.007
x1 = 0.6996 | 862.3 ± 0.5 | 850 ± 0.5 | 1120 ± 3 | 1079 ± 3 | 0.651 ± 0.008 | 0.565 ± 0.007
x1 = 0.7999 | 861.7 ± 0.5 | 849.5 ± 0.5 | 1109 ± 3 | 1068 ± 3 | 0.661 ± 0.008 | 0.574 ± 0.007
x1 = 0.8993 | 861.3 ± 0.5 | 849.4 ± 0.5 | 1099 ± 3 | 1060 ± 3 | 0.671 ± 0.008 | 0.584 ± 0.008
x1 = 1 | 861.1 ± 0.5 | 849.4 ± 0.5 | 1092 ± 3 | 1055 ± 3 | 0.683 ± 0.008 | 0.596 ± 0.008

c1ccccc1 [benzene] + CC(=O)OC(C)(C)C
x2 = 0
Details | mass density [kg/m3] | speed of sound [m/s] | viscosity [mPa·s]
298.15 K | 873 ± 0.5 | 1296 ± 3 | 0.609 ± 0.007
308.15 K | 862 ± 0.5 | 1260 ± 3 | 0.539 ± 0.007

Cc1ccccc1 [toluene] + CC(=O)OC(C)(C)C
x2 = 0
Details | mass density [kg/m3] | speed of sound [m/s] | viscosity [mPa·s]
298.15 K | 862.2 ± 0.5 | 1312 ± 3 | 0.556 ± 0.007
308.15 K | 852.5 ± 0.5 | 1270 ± 3 | 0.494 ± 0.007

CC(=O)OC(C)(C)C [1,1-dimethylethyl ethanoate] + Cc1ccccc1
Details | mass density, 298.15 K [kg/m3] | mass density, 308.15 K [kg/m3] | speed of sound, 298.15 K [m/s] | speed of sound, 308.15 K [m/s] | viscosity, 298.15 K [mPa·s] | viscosity, 308.15 K [mPa·s]
x1 = 0.0976 | 861.9 ± 0.5 | 851.9 ± 0.5 | 1275 ± 3 | 1232 ± 3 | 0.567 ± 0.007 | 0.502 ± 0.007
x1 = 0.1986 | 861.6 ± 0.5 | 851.2 ± 0.5 | 1242 ± 3 | 1197 ± 3 | 0.577 ± 0.007 | 0.509 ± 0.007
x1 = 0.2993 | 861.2 ± 0.5 | 850.5 ± 0.5 | 1213 ± 3 | 1168 ± 3 | 0.588 ± 0.007 | 0.516 ± 0.007
x1 = 0.3975 | 860.8 ± 0.5 | 849.9 ± 0.5 | 1187 ± 3 | 1143 ± 3 | 0.599 ± 0.007 | 0.524 ± 0.007
x1 = 0.4983 | 860.5 ± 0.5 | 849.4 ± 0.5 | 1165 ± 3 | 1120 ± 3 | 0.611 ± 0.007 | 0.533 ± 0.007
x1 = 0.5978 | 860.3 ± 0.5 | 848.9 ± 0.5 | 1145 ± 3 | 1101 ± 3 | 0.623 ± 0.007 | 0.542 ± 0.007
x1 = 0.6975 | 860.2 ± 0.5 | 848.7 ± 0.5 | 1128 ± 3 | 1085 ± 3 | 0.636 ± 0.008 | 0.553 ± 0.007
x1 = 0.7972 | 860.3 ± 0.5 | 848.7 ± 0.5 | 1113 ± 3 | 1072 ± 3 | 0.65 ± 0.008 | 0.565 ± 0.007
x1 = 0.8987 | 860.6 ± 0.5 | 848.9 ± 0.5 | 1101 ± 3 | 1062 ± 3 | 0.666 ± 0.008 | 0.58 ± 0.008
x1 = 1 | 861.1 ± 0.5 | 849.4 ± 0.5 | 1092 ± 3 | 1055 ± 3 | 0.683 ± 0.008 | 0.596 ± 0.008

CCc1ccccc1 [ethylbenzene] + CC(=O)OC(C)(C)C
x2 = 0
Details | mass density [kg/m3] | speed of sound [m/s] | viscosity [mPa·s]
298.15 K | 864.4 ± 0.5 | 1325 ± 3 | 0.631 ± 0.008
308.15 K | 855.4 ± 0.5 | 1280 ± 3 | 0.569 ± 0.008
